Experiment [1] deals with Candida albicans. Description: Antifungal activity against Candida albicans SC5314 assessed as inhibition of biofilm formation by XTT assay. It counts as functional, organism-based. On the technique in general: Tetrazolium assays rely on reduction of a dye to a coloured formazan, in cell work by metabolically active cells.
The test system of experiment [2] is Candida albicans. The experiment is described as follows: Antifungal activity against Candida albicans SC5314 assessed as inhibition of yeast cell to hyphae transition after 4 hrs by microscopic analysis. As to conditions: SC5314, 4 h. The format is functional, organism-based.
The test system of experiment [3] is Candida albicans. The experiment is described as follows: Antifungal activity against Candida albicans SC5314 by CLSI standard M27-A3 method. The format is functional.

In brackets after ≈: the same amount, converted by molar mass.

In general, IC50 refers to the concentration needed to halve the response being measured. Turning to `C=C1C(=O)O[C@@H]2C[C@@]3(C)C[C@@H](O)CC(=C)[C@@H]3C[C@H]12` [IVALIN], the IC50 was 15.4 µg/mL (≈ 62 µM) in experiment [1] and greater than 128 µg/mL in experiment [2].
Take `OC(Cn1cncn1)(Cn1cncn1)c1ccc(F)cc1F` [FLUCONAZOLE]: the IC50 in experiment [1] came out at 2 µg/mL (≈ 6.53 µM).
As for `C=C1C(=O)O[C@@H]2C[C@H](C)C(CCC(C)OC(=O)C(C)CC)=CC[C@H]12` (stereo not given in full), the IC50 in experiment [1] is greater than 128 µg/mL; in experiment [2], 105 µg/mL (≈ 314 µM).
As a reminder, the MIC50 is the lowest concentration that inhibits either 50% of growth or 50% of the strains tested, depending on the study. `C=C1C(=O)O[C@@H]2C[C@H](C)C(CCC(C)=O)=CC[C@H]12` [TOMENTOSIN] displayed an MIC50 in experiment [3] of 128 µg/mL (≈ 515 µM). Also, the IC50 is greater than 128 µg/mL in experiment [1] and 31.6 µg/mL (≈ 127 µM) in experiment [2].
Consider `C=C1C(=O)O[C@@H]2C[C@@]3(C)CCC[C@H](C)[C@@]34O[C@H]4[C@H]12`, for which the IC50 in experiment [1] was greater than 128 µg/mL; in experiment [2], 118 µg/mL (≈ 477 µM).
For `C=C1C(=O)O[C@@H]2C[C@@]3(C)CCCC(=C)[C@]3(O)C[C@H]12` [TELEKIN], the values for the IC50 in experiment [1] and in experiment [2] were 36 µg/mL (≈ 145 µM) and greater than 128 µg/mL, respectively.
As for `C=C1C(=O)O[C@H]2C[C@H](C)[C@@H]3CC[C@@]4(C)O[C@@]34C[C@H]12`, the results for the IC50 in experiment [1] and in experiment [2] were 38 µg/mL (≈ 153 µM) and 106 µg/mL (≈ 429 µM), respectively.
In the case of `C=C(C(=O)O)[C@@H]1CC[C@@]2(C)CCC=C(C)C2C1` (stereo not given in full), the IC50 in experiment [1] and in experiment [2] was greater than 128 µg/mL in each case.
In the case of `C=C1C(=O)O[C@@H]2C[C@]3(C)[C@@H](CCC(C)=O)[C@@H]3C[C@H]12`, the results for the IC50 in experiment [1] and in experiment [2] were greater than 128 µg/mL and 100 µg/mL (≈ 403 µM), respectively.
The corresponding values for `C=C1C(=O)O[C@@H]2C[C@H](C)C(CCC(C)O)=CC[C@H]12` (stereo not given in full) are greater than 128 µg/mL and greater than 128 µg/mL.

Source of the values: ChEMBL document CHEMBL3627687, “Sesquiterpenes from Carpesium macrocephalum inhibit Candida albicans biofilm formation and dimorphism” (Bioorg Med Chem Lett, 2015).
